# Laboratory results published in ChEMBL document CHEMBL1149636.
# Target: Carbonic anhydrase 4 (Homo sapiens) (UniProt P22748)
# Sequence (P22748 whole entry): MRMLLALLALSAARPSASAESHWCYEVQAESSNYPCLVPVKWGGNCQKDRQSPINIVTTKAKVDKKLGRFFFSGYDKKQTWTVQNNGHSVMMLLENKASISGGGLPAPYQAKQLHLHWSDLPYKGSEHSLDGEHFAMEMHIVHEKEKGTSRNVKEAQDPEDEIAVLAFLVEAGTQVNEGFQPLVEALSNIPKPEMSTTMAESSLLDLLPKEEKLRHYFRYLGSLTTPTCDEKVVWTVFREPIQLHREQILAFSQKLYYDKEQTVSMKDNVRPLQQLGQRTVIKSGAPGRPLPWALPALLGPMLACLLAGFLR
# Description: Inhibition of human recombinant full length CA4 by stopped-flow technique
compound,measurement,value
"CCNC1CN(CCCOC)S(=O)(=O)c2sc(S(N)(=O)=O)cc21 (single isomer, unassigned)",Kinact,3.95 µM
